# According to publication PMC11861906, “Structural basis for lipid-mediated activation of G protein-coupled receptor GPR55” (Nature Communications, 2025):
# Target: GPR55 mutant G152F (Gα13) (Homo sapiens, UniProt Q9Y2T6, G152F)
# Assay: BRET² G protein dissociation assay, GPR55 G152F with Gα13
# Assay type: cell-based
# Source text: To validate the functionality of the GPR55 cryo-EM construct, we conducted bioluminescence resonance energy transfer 2 (BRET²)-based G protein dissociation assays[46],[47] using an engineered heterotrimeric G13 protein. The N-terminal GFP fusion of the receptor was additionally modified with a G67A mutation to disrupt fluorescence properties. We employed human embryonic kidney (HEK) cells overexpressing wt or mutant GPR55 together with Gβ3, Gγ9-GFP, and Gα13 tagged with Renilla luciferase 8 (Rluc8).
# G protein dissociation assays were performed according to the original protocols of the TRUPATH BRET² assay[47],[87] but with subtle modifications as previously described[61],[88],[89]. All reagents and cells were obtained from Thermo Fisher Scientific unless indicated otherwise. The coding sequences for the G protein biosensors[47] (Gα12-Rluc8, Gα13-Rluc8, wt Gβ3, and Gγ9-GFP), the wt GPR55, the construct used for cryo-EM (with GFP bearing a G67A mutation to disrupt fluorescence properties[48] for BRET² assays), GPR55 binding pocket mutants (G152^4.56F, G152^4.56W, N171^ECL2Q, N171^ECL2A, T176^5.33A, R253^6.62A), and the wt TBXA2R were codon-optimized for Homo sapiens, gene-synthesized, and sub-cloned into pcDNA^TM3.1(+) between NheI and HindIII restriction sites by GeneArt (Thermo Fisher Scientific). […] Freshly grown cells were washed with Dulbecco’s Balanced Salt Solution (DPBS, cat. #14200075) and detached using trypsin-ethylenediaminetetraacetic acid (trypsin-EDTA) (cat. #25300-062). Then, the cells were reconstituted to 500,000 cells per mL with fresh medium, and 1,000,000 cells were seeded into each well of a 6-well plate. After 3 h incubation at 37 °C and 5% CO2, adherent cells were transfected with 600 ng DNA (1:1:1:1 ratio of plasmid DNA for GPR55, wt Gβ3, Gγ9-GFP, and Gα12-Rluc8 or Gα13-Rluc8). Plasmid DNA was mixed with 1.5 µL Lipofectamine^TM 2000 (cat. #11668027) in Opti-MEM^TM medium (cat. #31985062) and incubated for 20 min. Then, the mixture was added to each well of the 6-well plate following 24 h incubation at 37 °C and 5% CO2. Transfected cells were washed with DPBS, detached using EDTA (Versene, cat. #15040066), and reconstituted into fresh medium at 500,000 cells mL^−1. From this suspension, 50,000 cells were seeded into each well of a white-bottom 96-well plate (Nunc^TM MicroWell^TM 96 wells, cat. #136101) following overnight incubation at 37 °C and 5% CO2. Then, the adherent cells were washed with assay medium [Hank’s balanced salt solution (HBSS, cat. #14065056) plus 20 mM HEPES pH 7.4 (cat. #15630056)] and finally reconstituted into 50 µL of the same medium. […] Methoxy e-Coelenterazine was used as luciferase substrate (Prolume Purple, NanoLight Technology, cat. #369), reconstituted at 1 mM in methanol and diluted to 37.5 µM with assay buffer (7.5 µM final assay concentration). The assay was started by the addition of 20 µL luciferase substrate to each well of the assay plate using a Multidrop^TM Combi reagent dispenser (Thermo Fisher Scientific), followed by 5 min incubation at room temperature. Then, 30 µL of agonist dilutions or DMSO control was added (final DMSO concentration 1.5%), followed by an additional 5 min incubation at room temperature. BRET² measurements were performed with a PHERAstar® FSX microplate reader (BMG LABTECH) using a BRET² filter (donor emission 370–450 nm, acceptor emission 500–530 nm) at the maximum fluorescence gain of 3600. BRET² ratios were calculated by dividing GFP emission signals from Rluc8 emission counts. Buffer-DMSO controls were subtracted from each data point to calculate ΔBRET² ratios.
# GPR55 mutant G152F (Gα13), sequence (Q9Y2T6 whole entry G152F): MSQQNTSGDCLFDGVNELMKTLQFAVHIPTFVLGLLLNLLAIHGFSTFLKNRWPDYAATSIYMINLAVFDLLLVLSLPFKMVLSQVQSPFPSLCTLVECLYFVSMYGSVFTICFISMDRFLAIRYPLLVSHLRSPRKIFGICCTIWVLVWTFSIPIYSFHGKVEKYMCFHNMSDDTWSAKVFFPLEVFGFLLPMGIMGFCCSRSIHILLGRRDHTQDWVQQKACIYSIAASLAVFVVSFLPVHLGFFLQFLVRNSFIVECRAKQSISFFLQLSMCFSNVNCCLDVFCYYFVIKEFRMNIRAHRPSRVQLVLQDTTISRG
# GPR55 mutant G152F (Gα13), sequence (Q14344 whole entry partner): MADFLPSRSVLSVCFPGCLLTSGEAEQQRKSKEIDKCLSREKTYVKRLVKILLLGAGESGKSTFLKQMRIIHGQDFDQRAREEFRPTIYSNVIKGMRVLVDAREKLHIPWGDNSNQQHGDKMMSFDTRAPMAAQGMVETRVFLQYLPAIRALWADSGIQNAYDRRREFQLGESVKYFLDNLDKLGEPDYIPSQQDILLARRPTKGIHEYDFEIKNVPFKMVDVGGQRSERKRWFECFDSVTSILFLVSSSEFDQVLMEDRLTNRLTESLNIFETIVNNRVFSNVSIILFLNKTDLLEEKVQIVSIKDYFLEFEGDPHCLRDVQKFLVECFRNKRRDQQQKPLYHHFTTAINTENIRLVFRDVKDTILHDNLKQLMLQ
# GPR55 mutant G152F (Gα13), sequence (P16520 whole entry partner): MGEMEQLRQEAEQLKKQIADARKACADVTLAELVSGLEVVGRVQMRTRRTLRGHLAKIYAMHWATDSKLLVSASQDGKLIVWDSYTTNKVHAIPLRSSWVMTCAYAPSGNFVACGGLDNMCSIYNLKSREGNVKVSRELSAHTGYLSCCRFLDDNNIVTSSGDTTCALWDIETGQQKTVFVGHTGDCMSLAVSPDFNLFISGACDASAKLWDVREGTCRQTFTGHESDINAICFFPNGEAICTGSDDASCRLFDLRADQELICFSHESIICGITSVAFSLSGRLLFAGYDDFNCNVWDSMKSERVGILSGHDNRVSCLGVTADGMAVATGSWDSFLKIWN
# GPR55 mutant G152F (Gα13), sequence (O14610 1-66 partner limits assumed): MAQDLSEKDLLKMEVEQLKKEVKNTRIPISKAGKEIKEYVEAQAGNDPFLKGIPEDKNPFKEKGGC
"Mean (plotted) BRET² response, GPR55-G152F-G13 (Concentration 300 pM)","Mean (plotted) BRET² response, GPR55-G152F-G13 (Concentration 1e-9 M)","Mean (plotted) BRET² response, GPR55-G152F-G13 (Concentration 3e-9 M)","Mean (plotted) BRET² response, GPR55-G152F-G13 (Concentration 1e-8 M)","Mean (plotted) BRET² response, GPR55-G152F-G13 (Concentration 3e-8 M)","Mean (plotted) BRET² response, GPR55-G152F-G13 (Concentration 1e-7 M)","Mean (plotted) BRET² response, GPR55-G152F-G13 (Concentration 3e-7 M)","Mean (plotted) BRET² response, GPR55-G152F-G13 (Concentration 1e-6 M)","Mean (plotted) BRET² response, GPR55-G152F-G13 (Concentration 3e-6 M)","Mean (plotted) BRET² response, GPR55-G152F-G13 (Concentration 1e-5 M)","Mean (plotted) BRET² response, GPR55-G152F-G13 (Concentration 3e-5 M)",reduction of potency compared to wt GPR55 (G152F mutant),"EC50 (GPR55 G152F, Gα13) [nM]","Emax at 30 µM (GPR55 G152F, Gα13, 30 µM ligand, same normalization, read-out: Efficacy ± SEM (%)) [%]","Mean (plotted) BRET² response, GPR55-G152F-G13 (Concentration 10 pM)","Mean (plotted) BRET² response, GPR55-G152F-G13 (Concentration 30 pM)","Mean (plotted) BRET² response, GPR55-G152F-G13 (Concentration 100 pM)",SMILES
-0.004043,-0.005951,-0.01719,-0.03259,-0.04406,-0.05628,-0.06251,-0.06831,-0.07057,-0.07761,-0.07919,remained unchanged,21.9,108 ± 3,–,–,–,"Cc1cccc(N2CCN(C(=O)c3cc(S(=O)(=O)N(C)C)ccc3N3CCCC3)CC2)c1C [ML184, 3-[[4-(2,3-dimethylphenyl)-1-piperazinyl]carbonyl]-N,N-dimethyl-4-(1-pyrrolidinyl)benzenesulfonamide]"
-0.003135,0.0004643,-0.004129,-0.009075,-0.001052,-0.0003089,-0.001149,-0.0006267,-0.009104,-0.008346,-0.007499,–,–,–,-0.003,0.00205,0.0008,CCCCC[C@H](O)/C=C/[C@@H]1[C@@H](C/C=C\CCCC(=O)O)[C@H]2CO[C@@H]1C2 [U-46619]
